Experiments:
Type in all cases: cell-based
rat GluN1/GluN2C [1] = target: T1, rat GluN1/GluN2C (Rattus norvegicus, UniProt P35439+Q00961); assay: Two-electrode voltage-clamp recording in Xenopus laevis oocytes expressing recombinant rat GluN1/GluN2C; conditions: for remaining activity at 30 µM: 30 μM test compound, current ratio, oocytes, read-out: I30 μM/Icontrol (mean ± SEM, %) GluN2C; for IC50: Tables 1 and 2, read-out: IC50 (μM) [95% Confidence Interval] GluN2C
T1 construct: expressed in transfected cells; host or cells: Xenopus laevis oocytes (cRNA injection, GluN1/GluN2 ratio 1:2)
Description: (§1) Two-electrode voltage-clamp recording was performed in Xenopus laevis oocytes injected with mRNA to express recombinant rat GluN1/GluN2A, GluN1/GluN2B, GluN1/GluN2C, and GluN1/GluN2D. cDNAs for rat NMDA subunits GluN1-la (GenBank U08261; hereafter GluN1), GluN2A (GenBank D13211), GluN2B (GenBank U11419), GluN2C (GenBank M91563), and GluN2D (GenBank L31611) were provided by Drs. S. Heinemann from Salk Institute, S. Nakanishi from Kyoto University, and P. Seeburg from the University of Heidelberg. An automatic injector (Nanoject II, Drummond Scientific) was used for cRNA injection using the pipettes filled with mineral oil. The cRNA that transcribed in vitro via the mMessage Machine kit (Ambion) was diluted with nuclease-free water, and then injected at a GluN1/GluN2 ratio of 1:2. The oocytes were stored in Barth's solution that contained 88 mM NaCl, 5.0 mM Tris-HCl, 2.4 mM NaHCO3, 1.0 mM KCl, 0.84 mM MgSO4, 0.41 mM CaCl2), 0.33 mM Ca(NO3)2, 0.1 mg/ml gentamycin sulfate, 1.0 U/ml penicillin, and 1 μg/ml streptomycin at pH 7.4 and temperatures of 15-17° C. for two to five days before the two-electrode voltage-clamp recordings.
(§2) During recording, the oocytes were placed in a perfusion chamber and continually washed with the recording solution containing 90 mM NaCl, 1.0 mM KCl, 0.50 mM BaCl2, 0.005 mM EDTA, and 10 mM HEPES at pH 7.4 and a temperature of 23° C. Glass electrodes with a tip resistance of 0.5 to 2.5 MΩ were obtained from thin-walled glass capillary tubes. Voltage electrodes and current electrodes were filled with 0.3 M and 3.0 M KCl, respectively. The recordings were executed with the oocytes membrane potential holding at −40 mV by an OC-725 amplifier (Warner Instrument Co.). All compounds were dissolved in dimethyl sulfoxide (DMSO) as 20 mM stock solutions and further diluted to reach the desired concentration (0.05-0.5% (vol/vol) DMSO) in recording solution comprised of 30 µM glycine and 100 µM glutamate. In general, each compound was tested in multiple oocytes. To evaluate the inhibitory efficacy of the compounds, concentration-response curves were plotted using the average two-electrode voltage-clamp recording results and fitted by the following equation:
(§3) response=100/{1+[(inhibitor concentration)/IC50]^N} • where IC50 is the concentration of compound that inhibit half maximal of the current response and N is the Hill slope.

rat GluN1/GluN2D [2] = target: T2, rat GluN1/GluN2D (Rattus norvegicus, UniProt P35439+Q62645); assay: Two-electrode voltage-clamp recording in Xenopus laevis oocytes expressing recombinant rat GluN1/GluN2D; conditions: for remaining activity at 30 µM: 30 μM test compound, current ratio, oocytes, read-out: I30 μM/Icontrol (mean ± SEM, %) GluN2D; for IC50: Tables 1 and 2, read-out: IC50 (μM) [95% Confidence Interval] GluN2D
T2 construct: expressed in transfected cells; host or cells: Xenopus laevis oocytes (cRNA injection, GluN1/GluN2 ratio 1:2)
Description: as §1, §2, §3

rat GluN1/GluN2B [3] = target: T3, rat GluN1/GluN2B (Rattus norvegicus, UniProt P35439+Q00960); assay: Two-electrode voltage-clamp recording in Xenopus laevis oocytes expressing recombinant rat GluN1/GluN2B; conditions: for remaining activity at 30 µM: 30 μM test compound, current ratio, oocytes, read-out: I30 μM/Icontrol (mean ± SEM, %) GluN2B; for IC50: Tables 1 and 2, read-out: IC50 (μM) [95% Confidence Interval] GluN2B
T3 construct: expressed in transfected cells; host or cells: Xenopus laevis oocytes (cRNA injection, GluN1/GluN2 ratio 1:2)
Description: as §1, §2, §3

rat GluN1/GluN2A [4] = target: T4, rat GluN1/GluN2A (Rattus norvegicus, UniProt P35439+Q00959); assay: Two-electrode voltage-clamp recording in Xenopus laevis oocytes expressing recombinant rat GluN1/GluN2A; conditions: for remaining activity at 30 µM: 30 μM test compound, current ratio, oocytes, read-out: I30 μM/Icontrol (mean ± SEM, %) GluN2A; for IC50: Tables 1 and 2, read-out: IC50 (μM) [95% Confidence Interval] GluN2A
T4 construct: expressed in transfected cells; host or cells: Xenopus laevis oocytes (cRNA injection, GluN1/GluN2 ratio 1:2)
Description: as §1, §2, §3

rat GluN1/GluN2D [5] = target: T5, rat GluN1/GluN2D (Rattus norvegicus, UniProt Q62645); assay: Two-electrode voltage-clamp recording in Xenopus laevis oocytes expressing recombinant rat GluN1/GluN2D; conditions: for Subunit Selectivity 2A IC50/2D IC50: ratio of GluN2A IC50 to GluN2D IC50; for Subunit Selectivity 2B IC50/2D IC50: ratio of GluN2B IC50 to GluN2D IC50
T5 construct: expressed in transfected cells; host or cells: Xenopus laevis oocytes (cRNA injection, GluN1/GluN2 ratio 1:2)
Description: as §1, §2, §3

rat GluN1/GluN2C [6] = target: T6, rat GluN1/GluN2C (Rattus norvegicus, UniProt Q00961); assay: Two-electrode voltage-clamp recording in Xenopus laevis oocytes expressing recombinant rat GluN1/GluN2C; conditions: current ratio reported for 10 μM test compound (footnote c)
T6 construct: expressed in transfected cells; host or cells: Xenopus laevis oocytes (cRNA injection, GluN1/GluN2 ratio 1:2)
Description: as §1, §2, §3

rat GluN1/GluN2B [7] = target: T7, rat GluN1/GluN2B (Rattus norvegicus, UniProt Q00960); assay: Two-electrode voltage-clamp recording in Xenopus laevis oocytes expressing recombinant rat GluN1/GluN2B
T7 construct: expressed in transfected cells; host or cells: Xenopus laevis oocytes (cRNA injection, GluN1/GluN2 ratio 1:2)
Description: as §1, §2, §3

rat GluN1/GluN2A [8] = target: T8, rat GluN1/GluN2A (Rattus norvegicus, UniProt Q00959); assay: Two-electrode voltage-clamp recording in Xenopus laevis oocytes expressing recombinant rat GluN1/GluN2A; conditions: current ratio reported for 10 μM test compound (footnote c)
T8 construct: expressed in transfected cells; host or cells: Xenopus laevis oocytes (cRNA injection, GluN1/GluN2 ratio 1:2)
Description: as §1, §2, §3

[9] = current ratio reported for 10 μM test compound (footnote c)

T3 sequence (Q00960 27-1482, other chains not shown): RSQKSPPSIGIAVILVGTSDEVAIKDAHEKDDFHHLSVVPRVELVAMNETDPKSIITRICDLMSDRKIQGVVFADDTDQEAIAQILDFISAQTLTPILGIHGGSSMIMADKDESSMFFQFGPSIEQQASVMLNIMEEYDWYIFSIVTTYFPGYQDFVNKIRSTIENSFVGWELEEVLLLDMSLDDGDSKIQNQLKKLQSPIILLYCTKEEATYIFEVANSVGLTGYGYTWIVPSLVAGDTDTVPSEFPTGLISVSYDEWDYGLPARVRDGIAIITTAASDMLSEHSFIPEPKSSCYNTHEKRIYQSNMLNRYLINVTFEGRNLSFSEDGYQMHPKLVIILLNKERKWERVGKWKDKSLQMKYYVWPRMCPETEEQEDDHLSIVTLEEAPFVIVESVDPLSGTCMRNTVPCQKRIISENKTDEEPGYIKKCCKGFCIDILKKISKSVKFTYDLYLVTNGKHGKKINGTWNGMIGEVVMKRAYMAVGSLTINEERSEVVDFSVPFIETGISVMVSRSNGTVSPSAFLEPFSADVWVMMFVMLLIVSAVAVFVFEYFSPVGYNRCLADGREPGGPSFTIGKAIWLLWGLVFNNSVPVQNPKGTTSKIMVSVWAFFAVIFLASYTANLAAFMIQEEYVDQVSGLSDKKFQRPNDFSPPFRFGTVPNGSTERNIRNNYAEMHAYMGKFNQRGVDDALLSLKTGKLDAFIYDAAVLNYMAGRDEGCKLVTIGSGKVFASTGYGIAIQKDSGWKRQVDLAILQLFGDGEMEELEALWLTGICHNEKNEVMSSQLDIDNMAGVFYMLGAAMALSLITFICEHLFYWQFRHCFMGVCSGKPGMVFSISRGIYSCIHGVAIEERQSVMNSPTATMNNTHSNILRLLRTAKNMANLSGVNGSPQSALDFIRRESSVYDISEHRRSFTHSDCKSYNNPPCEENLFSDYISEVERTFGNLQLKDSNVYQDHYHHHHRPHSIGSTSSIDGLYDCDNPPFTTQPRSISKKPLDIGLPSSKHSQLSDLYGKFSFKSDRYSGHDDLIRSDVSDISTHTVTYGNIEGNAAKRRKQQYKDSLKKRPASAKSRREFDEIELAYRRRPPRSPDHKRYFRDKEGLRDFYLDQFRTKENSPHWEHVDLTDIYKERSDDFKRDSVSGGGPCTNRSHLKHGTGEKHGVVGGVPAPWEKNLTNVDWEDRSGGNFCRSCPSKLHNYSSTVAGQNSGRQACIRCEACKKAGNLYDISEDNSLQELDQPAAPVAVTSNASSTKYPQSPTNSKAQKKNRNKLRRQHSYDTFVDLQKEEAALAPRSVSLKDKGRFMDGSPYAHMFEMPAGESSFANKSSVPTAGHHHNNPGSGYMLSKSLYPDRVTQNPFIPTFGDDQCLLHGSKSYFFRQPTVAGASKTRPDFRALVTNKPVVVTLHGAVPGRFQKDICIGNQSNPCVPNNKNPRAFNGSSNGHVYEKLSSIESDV
T2 sequence (Q62645 28-1323, other chains not shown): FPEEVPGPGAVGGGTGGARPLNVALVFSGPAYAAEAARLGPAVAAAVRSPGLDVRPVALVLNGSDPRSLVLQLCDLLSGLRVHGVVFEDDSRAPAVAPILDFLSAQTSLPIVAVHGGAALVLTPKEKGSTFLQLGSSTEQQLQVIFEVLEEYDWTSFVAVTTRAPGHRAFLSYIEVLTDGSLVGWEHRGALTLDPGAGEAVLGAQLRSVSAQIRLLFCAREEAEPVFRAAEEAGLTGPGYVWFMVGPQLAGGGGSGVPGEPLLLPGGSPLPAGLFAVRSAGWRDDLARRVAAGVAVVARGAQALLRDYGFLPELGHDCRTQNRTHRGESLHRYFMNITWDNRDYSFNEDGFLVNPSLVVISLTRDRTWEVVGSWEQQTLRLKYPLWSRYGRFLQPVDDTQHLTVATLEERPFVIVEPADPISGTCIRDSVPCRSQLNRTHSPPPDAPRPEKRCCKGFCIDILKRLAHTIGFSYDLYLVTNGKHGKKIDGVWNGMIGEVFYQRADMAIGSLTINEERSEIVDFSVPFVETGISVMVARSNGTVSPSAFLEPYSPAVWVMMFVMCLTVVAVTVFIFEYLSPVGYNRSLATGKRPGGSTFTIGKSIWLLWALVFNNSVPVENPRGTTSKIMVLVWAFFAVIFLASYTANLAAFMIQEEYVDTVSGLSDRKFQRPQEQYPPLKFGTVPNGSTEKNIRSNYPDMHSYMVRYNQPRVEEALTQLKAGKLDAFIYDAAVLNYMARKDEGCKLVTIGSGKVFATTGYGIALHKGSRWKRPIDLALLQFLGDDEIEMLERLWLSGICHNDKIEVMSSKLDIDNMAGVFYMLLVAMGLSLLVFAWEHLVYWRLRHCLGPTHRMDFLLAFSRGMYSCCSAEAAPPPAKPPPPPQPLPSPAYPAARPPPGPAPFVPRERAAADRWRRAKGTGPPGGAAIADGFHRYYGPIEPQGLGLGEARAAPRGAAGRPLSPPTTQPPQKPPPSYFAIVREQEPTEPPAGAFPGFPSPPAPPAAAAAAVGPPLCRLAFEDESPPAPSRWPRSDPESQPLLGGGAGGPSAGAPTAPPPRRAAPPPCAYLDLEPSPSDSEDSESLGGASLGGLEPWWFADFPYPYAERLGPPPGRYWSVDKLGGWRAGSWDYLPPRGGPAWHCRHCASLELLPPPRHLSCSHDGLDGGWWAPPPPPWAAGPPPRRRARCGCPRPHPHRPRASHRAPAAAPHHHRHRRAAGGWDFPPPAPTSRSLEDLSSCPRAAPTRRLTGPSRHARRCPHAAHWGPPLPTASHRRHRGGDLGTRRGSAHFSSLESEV
T5 sequence (Q62645 28-1323, other chains not shown): as above
T4 sequence (Q00959 23-1464, other chains not shown): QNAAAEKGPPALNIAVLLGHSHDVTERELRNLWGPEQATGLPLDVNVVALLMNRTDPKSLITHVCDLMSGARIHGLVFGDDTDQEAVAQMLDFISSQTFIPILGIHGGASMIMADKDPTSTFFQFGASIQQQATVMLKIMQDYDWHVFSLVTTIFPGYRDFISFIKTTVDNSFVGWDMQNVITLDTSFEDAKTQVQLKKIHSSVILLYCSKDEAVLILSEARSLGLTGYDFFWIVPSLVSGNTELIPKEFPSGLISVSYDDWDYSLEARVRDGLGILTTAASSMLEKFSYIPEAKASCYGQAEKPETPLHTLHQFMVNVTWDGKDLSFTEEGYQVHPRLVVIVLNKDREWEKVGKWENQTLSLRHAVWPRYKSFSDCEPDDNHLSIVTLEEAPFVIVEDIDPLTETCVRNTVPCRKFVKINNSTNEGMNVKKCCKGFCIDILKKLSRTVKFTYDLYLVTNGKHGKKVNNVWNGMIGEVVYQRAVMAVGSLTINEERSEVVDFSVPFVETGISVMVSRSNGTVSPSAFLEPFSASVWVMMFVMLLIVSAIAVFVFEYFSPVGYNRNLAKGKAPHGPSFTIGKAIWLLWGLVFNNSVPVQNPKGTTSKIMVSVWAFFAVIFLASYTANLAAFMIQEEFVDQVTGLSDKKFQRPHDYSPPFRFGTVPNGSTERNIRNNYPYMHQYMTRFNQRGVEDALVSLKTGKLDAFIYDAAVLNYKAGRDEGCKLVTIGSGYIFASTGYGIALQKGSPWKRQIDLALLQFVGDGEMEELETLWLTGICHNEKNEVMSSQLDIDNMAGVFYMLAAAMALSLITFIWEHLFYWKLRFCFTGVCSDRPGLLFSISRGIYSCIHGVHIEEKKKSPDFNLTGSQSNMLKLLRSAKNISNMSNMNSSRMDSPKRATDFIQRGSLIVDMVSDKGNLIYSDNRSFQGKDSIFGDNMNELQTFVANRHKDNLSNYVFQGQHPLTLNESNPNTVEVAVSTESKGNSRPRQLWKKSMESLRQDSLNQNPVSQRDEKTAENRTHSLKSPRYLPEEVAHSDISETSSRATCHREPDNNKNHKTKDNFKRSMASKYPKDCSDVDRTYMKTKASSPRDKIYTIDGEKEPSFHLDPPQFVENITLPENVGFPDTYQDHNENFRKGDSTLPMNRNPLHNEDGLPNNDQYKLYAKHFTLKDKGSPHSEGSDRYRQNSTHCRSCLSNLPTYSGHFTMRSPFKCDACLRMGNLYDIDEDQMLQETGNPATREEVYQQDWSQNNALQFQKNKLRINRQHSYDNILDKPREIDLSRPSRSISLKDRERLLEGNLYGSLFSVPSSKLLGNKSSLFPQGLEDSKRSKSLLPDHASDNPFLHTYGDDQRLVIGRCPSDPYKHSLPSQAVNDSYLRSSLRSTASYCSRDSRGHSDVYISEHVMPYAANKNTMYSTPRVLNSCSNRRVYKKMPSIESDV

Row | remaining activity at 30 µM (rat GluN1/GluN2C [1]) | remaining activity at 30 µM (rat GluN1/GluN2D [2]) | remaining activity at 30 µM (rat GluN1/GluN2B [3]) | remaining activity at 30 µM (rat GluN1/GluN2A [4]) | IC50 (rat GluN1/GluN2C [1]) | Subunit Selectivity 2A IC50/2D IC50 (rat GluN1/GluN2D [5]) | Subunit Selectivity 2B IC50/2D IC50 (rat GluN1/GluN2D [5]) | IC50 (rat GluN1/GluN2D [2]) | IC50 (rat GluN1/GluN2B [3]) | IC50 (rat GluN1/GluN2A [4]) | Current ratio I/Icontrol (mean ± SEM, %) GluN2C (rat GluN1/GluN2C [6]) | Current ratio I/Icontrol (mean ± SEM, %) GluN2D (rat GluN1/GluN2D [5]; [9]) | Current ratio I/Icontrol (mean ± SEM, %) GluN2B (rat GluN1/GluN2B [7]; [9]) | Current ratio I/Icontrol (mean ± SEM, %) GluN2A (rat GluN1/GluN2A [8]) | Current ratio I/Icontrol (mean ± SEM, %) GluN2B (rat GluN1/GluN2B [7]; current ratio reported for 3 μM test compound (footnote d, Table 2)) | SMILES
1 | 61 ± 1% | 39 ± 1.7% | 96 ± 2.4% | 104 ± 2.2% | 55 µM |  |  | 20 µM |  |  |  |  |  |  |  | O=C(O)CC(F)(F)C(=O)N1N=C(c2c(-c3ccc(Cl)cc3)cc[nH]c2=O)CC1c1ccc(Cl)cc1 (stereo not drawn) [Compound 28, 4-[3-(4-Chlorophenyl)-5-[4-(4-chlorophenyl)-2-oxo-1H-pyridin-3-yl]-3,4-dihydropyrazol-2-yl]-3,3-difluoro-4-oxo-butanoic acid]
2 | 29 ± 2% | 26 ± 1.8% | 55 ± 3% | 86 ± 4.4% | 14 µM |  | 3 | 12 µM | 41 µM |  |  |  |  |  |  | Cc1cc(-c2ccc(Cl)cc2)c(C2=NN(C(=O)C(F)(F)CC(=O)O)C(c3ccc(Cl)cc3)C2)c(=O)[nH]1 (stereo not drawn) [Compound 55, 4-[3-(4-Chlorophenyl)-5-[4-(4-chlorophenyl)-6-methyl-2-oxo-1H-pyridin-3-yl]-3,4-dihydropyrazol-2-yl]-3,3-difluoro-4-oxo-butanoic acid]
3 | 6.9 ± 2.5% | 5.9 ± 2.7% |  | 86 ± 7.4% | 0.32 µM |  |  | 0.25 µM |  |  |  |  |  |  | 88 ± 4.6^d (n = 1, 4) % | O=C(O)CC(F)(F)C(=O)N1N=C(c2c(-c3ccc(Cl)cc3)c3ccsc3[nH]c2=O)CC1c1ccc(Cl)cc1 (stereo not drawn) [57(b), 4-[3-(4-Chlorophenyl)-5-[4-(4-chlorophenyl)-6-oxo-7H-thieno[2,3-b]pyridin-5-yl]-3,4-dihydropyrazol-2-yl]-3,3-difluoro-4-oxo-butanoic acid]

Continued, molecule first:

Row | SMILES | remaining activity at 30 µM (rat GluN1/GluN2C [1]) | remaining activity at 30 µM (rat GluN1/GluN2D [2]) | remaining activity at 30 µM (rat GluN1/GluN2B [3]) | remaining activity at 30 µM (rat GluN1/GluN2A [4]) | IC50 (rat GluN1/GluN2C [1]) | Subunit Selectivity 2A IC50/2D IC50 (rat GluN1/GluN2D [5]) | Subunit Selectivity 2B IC50/2D IC50 (rat GluN1/GluN2D [5]) | IC50 (rat GluN1/GluN2D [2]) | IC50 (rat GluN1/GluN2B [3]) | IC50 (rat GluN1/GluN2A [4]) | Current ratio I/Icontrol (mean ± SEM, %) GluN2C (rat GluN1/GluN2C [6]) | Current ratio I/Icontrol (mean ± SEM, %) GluN2D (rat GluN1/GluN2D [5]; [9]) | Current ratio I/Icontrol (mean ± SEM, %) GluN2B (rat GluN1/GluN2B [7]; [9]) | Current ratio I/Icontrol (mean ± SEM, %) GluN2A (rat GluN1/GluN2A [8]) | Current ratio I/Icontrol (mean ± SEM, %) GluN2B (rat GluN1/GluN2B [7]; current ratio reported for 3 μM test compound (footnote d, Table 2))
4 | O=C(O)CC(F)(F)C(=O)N1N=C(c2cnccc2-c2ccccc2)CC1c1ccc(Cl)cc1 (stereo not drawn) [Compound 15, 4-[3-(4-Chlorophenyl)-5-(4-phenyl-3-pyridyl)-3,4-dihydropyrazol-2-yl]-3,3-difluoro-4-oxo-butanoic acid] | 91 ± 3.5% | 74 ± 7.1% | 82 ± 1.1% | 98 ± 4.1% |  |  |  |  |  |  |  |  |  |  | 
5 | O=C(O)CC(F)(F)C(=O)N1N=C(c2c(-c3ccc(Cl)cc3)c3cccnc3[nH]c2=O)CC1c1ccc(Cl)cc1 (stereo not drawn) [Compound 88, 4-[3-(4-Chlorophenyl)-5-[4-(4-chlorophenyl)-2-oxo-1H-1,8-naphthyridin-3-yl]-3,4-dihydropyrazol-2-yl]-3,3-difluoro-4-oxo-butanoic acid] | 6.6 ± 0.9% | 3.8 ± 0.6% | 71 ± 0.9% | 49 ± 7.3% | 2.1 µM | 35 | 52 | 1.3 µM | 67 µM | 45 µM |  |  |  |  | 
6 | O=C(CCc1nccs1)N1N=C(c2c(-c3ccc(Cl)cc3)c3ccccc3[nH]c2=O)CC1c1ccc(Cl)cc1 (stereo not drawn) [Compound 123, 4-(4-Chlorophenyl)-3-[3-(4-chlorophenyl)-2-(3-thiazol-2-ylpropanoyl)-3,4-dihydropyrazol-5-yl]-1H-quinolin-2-one] |  |  |  |  |  |  |  |  |  |  | 71 ± 4.8^c (n = 2, 8) % | 67 ± 5.1^c (n = 2, 8) % | 94 ± 1.7^c (n = 2, 8) % | 96 ± 1.8^c (n = 2, 8) % | 
7 | Cc1[nH]c(=O)c(C2=NN(C(=O)C(F)(F)CC(=O)O)C(c3ccc(Cl)cc3)C2)c(-c2ccc(Cl)cc2)c1C (stereo not drawn) [Compound 56, 4-[3-(4-Chlorophenyl)-5-[4-(4-chlorophenyl)-5,6-dimethyl-2-oxo-1H-pyridin-3-yl]-3,4-dihydropyrazol-2-yl]-3,3-difluoro-4-oxo-butanoic acid] | 2.7 ± 0.32% | 7.9 ± 2.9% | 58 ± 2% | 71 ± 5% | 1.9 µM |  |  | 2.6 µM | 47 µM | 42 µM |  |  |  |  | 
8 | O=C(O)CC(F)(F)C(=O)N1N=C(c2cnccc2-c2ccc(Cl)cc2)CC1c1ccc(Cl)cc1 (stereo not drawn) [Compound 29, 4-[3-(4-Chlorophenyl)-5-[4-(4-chlorophenyl)-3-pyridyl]-3,4-dihydropyrazol-2-yl]-3,3-difluoro-4-oxo-butanoic acid] | 35 ± 0.84% | 27 ± 2.3% | 79 ± 4.3% | 74 ± 3.4% | 15 µM |  |  | 12 µM |  |  |  |  |  |  | 
9 | O=C(O)CC(F)(F)C(=O)N1N=C(c2c(-c3ccc(Br)cc3)c3ccsc3[nH]c2=O)CC1c1ccc(Cl)cc1 (stereo not drawn) [57(a), 4-[5-[4-(4-Bromophenyl)-6-oxo-7H-thieno[2,3-b]pyridin-5-yl]-3-(4-chlorophenyl)-3,4-dihydropyrazol-2-yl]-3,3-difluoro-4-oxo-butanoic acid] | 22 ± 1.5% | 19 ± 3% | 37.7 ± 3.5% | 47.6 ± 5.5% | 0.56 µM | 24 | 44 | 0.43 µM | 19 µM | 11 µM |  |  |  |  | 
10 | O=C(CCc1nnn[nH]1)N1N=C(c2c(-c3ccc(Cl)cc3)c3ccccc3[nH]c2=O)CC1c1ccc(Cl)cc1 (stereo not drawn) [Compound 109, 4-(4-Chlorophenyl)-3-[3-(4-chlorophenyl)-2-[3-(1H-tetrazol-5-yl)propanoyl]-3,4-dihydropyrazol-5-yl]-1H-quinolin-2-one] | 2.3 ± 0.5% | 2.4 ± 1.6% | 48 ± 1.9% | 29 ± 4.1% |  | 42 | 56 |  |  |  |  |  |  |  | 
11 | Cc1cc(-c2ccc(Cl)cc2)c(C2=NN(C(=O)C(F)(F)CC(=O)O)C(c3ccc(Cl)cc3)C2)cn1 (stereo not drawn) [Compound 73, 4-[3-(4-Chlorophenyl)-5-[4-(4-chlorophenyl)-6-methyl-3-pyridyl]-3,4-dihydropyrazol-2-yl]-3,3-difluoro-4-oxo-butanoic acid] | 111 ± 1.9% | 110 ± 3.1% | 100 ± 2.7% | 100 ± 2% |  |  |  |  |  |  |  |  |  |  | 
